From PMC12415202, “Specificities of chemosensory receptors in the human gut microbiota” (Proceedings of the National Academy of Sciences of the …, 2025)
Each block holds one compound with its values, some of them ahead of it.

Key:
Assay in all cases: ITC
D8 LBD = target: T1, D8 LBD; conditions: membrane-distal module
T1 construct: D8-dm = residues 33-179, D8-pm = residues 153-280; source species and locus only in SI

B9 LBD = target: T2, B9 LBD
T2 construct: source species and locus only in SI
From the text: ITC on B9 LBD | The binding of L-threonine to the B9 LBD

K1 LBD = target: T3, K1 LBD
T3 construct: source species and locus only in SI

B6 LBD = target: T4, B6 LBD; set-up: species or system Catenibacterium mitsuokai
T4 construct: locus only in SI
From the text: ITC on B6 LBD | the binding of indole to the B6 LBD were confirmed by isothermal titration calorimetry

J6 LBD = target: T5, J6 LBD
T5 construct: source species and locus only in SI
From the text: ITC on J6 LBD | ethylamine and methylamine to the J6 LBD was confirmed by ITC

C1 LBD = target: T6, C1 LBD
T6 construct: source species and locus only in SI
From the text: ITC on C1 LBD | The binding of L-lactate to the K1 and C1 LBDs

SMILES: C=C(CC(=O)O)C(=O)O [itaconate]
- Kd (D8 LBD): 9.6 ± 0.9 µM

SMILES: C[C@@H](O)[C@H](N)C(=O)O [L-threonine]
- Kd (B9 LBD): 1.3 ± 0.2 µM

SMILES: c1ccc2[nH]ccc2c1 [indole]
- Kd (B6 LBD): 35.6 ± 7.02 µM

SMILES: O=C(O)/C=C\C(=O)O [maleate]
- Kd (D8 LBD): 7.7 ± 0.41 µM

SMILES: CN [methylamine]
- Kd (J6 LBD): 242 ± 22 µM

The remaining lines, values ahead:

- Kd (K1 LBD): 66.1 ± 10.7 µM
SMILES: C[C@@H](O)C(=O)O [D-lactate]

- Kd (D8 LBD): 1.7 ± 0.11 µM
SMILES: O=C(O)CCC(=O)O [succinate]

- Kd (K1 LBD): 16 ± 0.56 µM
- Kd (C1 LBD): 26.8 ± 0.91 µM
SMILES: C[C@H](O)C(=O)O [L-lactate]
